Measurements published in ChEMBL document CHEMBL5223162, “Discovery of Pyrazolopyridine Derivatives as HPK1 Inhibitors” (ACS Med Chem Lett, 2023).

Experiments:
[1] = AUC in cynomolgus monkey at 3 mg/kg, po and measured upto 24 hrs by LC-MS/MS analysis; type: ADME, organism-based, Macaca fascicularis; parameters: dose 3 mg/kg, time < 24 hrs, route po; details: in vivo
[2] = Volume of distribution at steady state in cynomolgus monkey at 1 mg/kg, iv and measured upto 24 hrs by LC-MS/MS analysis; type: ADME, organism-based, Macaca fascicularis; details: in vivo
[3] = Half life in cynomolgus monkey at 1 mg/kg, iv and measured upto 24 hrs by LC-MS/MS analysis; type: ADME, organism-based, Macaca fascicularis; details: in vivo
[4] = Clearance in cynomolgus monkey at 1 mg/kg, iv and measured upto 24 hrs by LC-MS/MS analysis; type: ADME, organism-based, Macaca fascicularis; details: in vivo
[5] = AUC in Sprague-Dawley rat at 3 mg/kg, po and measured upto 24 hrs by LC-MS/MS analysis; type: ADME, organism-based; parameters: dose 3 mg/kg, time < 24 hrs, route po; details: in vivo
[6] = Clearance in Sprague-Dawley rat at 1.5 mg/kg, iv and measured upto 24 hrs by LC-MS/MS analysis; type: ADME, organism-based; details: in vivo
[7] = Fraction unbound in human plasma by LC-MS/MS analysis; type: ADME, cell-free
[8] = Permeability across apical to basolateral side in human Caco2 cells at 50 uM and measured after 120 mins by LC-MS analysis; type: ADME, cell-based; details: Caco-2, read-out: permeability
[9] = molecular target: T1, Mitogen-activated protein kinase kinase kinase kinase 1 (Homo sapiens, UniProt Q92918); assay: Binding affinity to recombinant human HPK1 (1 to 346 residues) expressed sf9 cells incubated for 1 hr by LanthaScreen assay
[10] = molecular target: T1, Mitogen-activated protein kinase kinase kinase kinase 1; assay: Inhibition of human HPK1 in human Jurkat cells assessed as reduction in SLP76 phosphorylation incubated for 1 hr by HTRF assay; type: cell-based
[11] = Intrinsic clearance in human liver microsomes at 1 uM and measured upto 30 mins in presence of NADPH by LC-MS analysis; type: ADME, Microsome; details: read-out: CLH (converted)
[12] = Oral bioavailability in cynomolgus monkey at 3 mg/kg and measured upto 24 hrs by LC-MS/MS analysis; type: ADME, organism-based, Macaca fascicularis; details: in vivo
[13] = molecular target: T1, Mitogen-activated protein kinase kinase kinase kinase 1; assay: Inhibition of human HPK1 in human whole blood assessed as reduction in SLP76 phosphorylation incubated for 1 hr by HTRF assay; type: tissue-based
[14] = molecular target: T2, Cytochrome P450 1A2 (Homo sapiens, UniProt P05177); assay: Inhibition of CYP1A2 in human liver microsomes using 7- ethoxyresorufin as substrate by LC-MS analysis; type: ADME, Microsome
T2 sequence (P05177 whole entry): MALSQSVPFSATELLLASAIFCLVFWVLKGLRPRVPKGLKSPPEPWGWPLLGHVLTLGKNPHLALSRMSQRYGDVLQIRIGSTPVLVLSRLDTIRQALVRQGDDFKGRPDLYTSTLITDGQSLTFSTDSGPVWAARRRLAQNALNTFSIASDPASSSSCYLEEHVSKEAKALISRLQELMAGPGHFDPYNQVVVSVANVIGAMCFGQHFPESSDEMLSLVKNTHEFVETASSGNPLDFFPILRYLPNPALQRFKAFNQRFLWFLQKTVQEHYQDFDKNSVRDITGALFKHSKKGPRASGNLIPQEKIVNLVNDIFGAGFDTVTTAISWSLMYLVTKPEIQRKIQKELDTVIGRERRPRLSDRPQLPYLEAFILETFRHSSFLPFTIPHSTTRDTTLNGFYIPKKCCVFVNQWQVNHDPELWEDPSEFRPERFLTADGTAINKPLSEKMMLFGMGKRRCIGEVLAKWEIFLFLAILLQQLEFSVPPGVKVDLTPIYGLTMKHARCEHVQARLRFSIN

[15] = molecular target: T3, Cytochrome P450 2B6 (Homo sapiens, UniProt P20813); assay: Inhibition of CYP2B6 in human liver microsomes using bupropion as substrate by LC-MS analysis; type: ADME, Microsome
T3 sequence (P20813 whole entry): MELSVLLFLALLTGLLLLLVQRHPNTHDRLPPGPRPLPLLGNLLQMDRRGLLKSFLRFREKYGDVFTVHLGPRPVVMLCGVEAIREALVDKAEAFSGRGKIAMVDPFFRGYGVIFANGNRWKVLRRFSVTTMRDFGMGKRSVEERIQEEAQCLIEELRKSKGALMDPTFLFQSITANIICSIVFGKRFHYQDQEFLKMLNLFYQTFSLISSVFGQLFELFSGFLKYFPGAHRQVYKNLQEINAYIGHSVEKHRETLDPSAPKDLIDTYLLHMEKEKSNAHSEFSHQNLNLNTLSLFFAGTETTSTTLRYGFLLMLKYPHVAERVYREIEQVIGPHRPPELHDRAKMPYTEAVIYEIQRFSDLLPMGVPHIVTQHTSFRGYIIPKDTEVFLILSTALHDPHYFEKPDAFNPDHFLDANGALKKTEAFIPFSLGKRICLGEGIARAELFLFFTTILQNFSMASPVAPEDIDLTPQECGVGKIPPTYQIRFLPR

[16] = molecular target: T4, Cytochrome P450 2C8 (Homo sapiens, UniProt P10632); assay: Inhibition of CYP2C8 in human liver microsomes using amodiaquine as substrate by LC-MS analysis; type: ADME, Microsome
T4 sequence (P10632 whole entry): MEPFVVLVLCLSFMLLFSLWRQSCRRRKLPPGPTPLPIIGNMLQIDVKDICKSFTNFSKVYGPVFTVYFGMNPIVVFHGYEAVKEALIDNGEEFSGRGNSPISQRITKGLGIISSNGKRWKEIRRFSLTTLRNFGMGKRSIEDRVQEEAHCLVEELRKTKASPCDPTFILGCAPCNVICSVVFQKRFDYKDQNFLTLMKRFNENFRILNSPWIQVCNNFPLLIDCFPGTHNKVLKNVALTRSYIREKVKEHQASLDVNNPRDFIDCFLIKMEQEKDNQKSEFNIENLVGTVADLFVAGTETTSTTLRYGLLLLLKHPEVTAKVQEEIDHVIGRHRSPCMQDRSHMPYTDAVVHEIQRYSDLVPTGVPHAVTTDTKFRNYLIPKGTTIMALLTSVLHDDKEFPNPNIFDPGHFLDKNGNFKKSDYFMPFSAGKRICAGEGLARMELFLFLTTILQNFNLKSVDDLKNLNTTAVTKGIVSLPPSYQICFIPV

[17] = molecular target: Cytochrome P450 2C9 (Homo sapiens, UniProt P11712); assay: Inhibition of CYP2C9 in human liver microsomes using diclofenac as substrate by LC-MS analysis; type: ADME, Microsome
[18] = molecular target: Cytochrome P450 2D6 (Homo sapiens, UniProt P10635); assay: Inhibition of CYP2D6 in human liver microsomes using bufuralol as substrate by LC-MS analysis; type: ADME, Microsome
[19] = molecular target: Cytochrome P450 3A4 (Homo sapiens, UniProt P08684); assay: Inhibition of CYP3A4 in human liver microsomes using testosterone as substrate by LC-MS analysis; type: ADME, Microsome
[20] = molecular target: hERG (KCNH2) (Homo sapiens, UniProt Q12809); assay: Inhibition of human ERG at 5 uM by patch-clamp assay; type: toxicity
[21] = molecular target: Cytochrome P450 2C19 (Homo sapiens, UniProt P33261); assay: Inhibition of CYP2C19 in human liver microsomes using S mephenytoin as substrate by LC-MS analysis; type: ADME, Microsome
Cytochrome P450 2C19, sequence (P33261 whole entry): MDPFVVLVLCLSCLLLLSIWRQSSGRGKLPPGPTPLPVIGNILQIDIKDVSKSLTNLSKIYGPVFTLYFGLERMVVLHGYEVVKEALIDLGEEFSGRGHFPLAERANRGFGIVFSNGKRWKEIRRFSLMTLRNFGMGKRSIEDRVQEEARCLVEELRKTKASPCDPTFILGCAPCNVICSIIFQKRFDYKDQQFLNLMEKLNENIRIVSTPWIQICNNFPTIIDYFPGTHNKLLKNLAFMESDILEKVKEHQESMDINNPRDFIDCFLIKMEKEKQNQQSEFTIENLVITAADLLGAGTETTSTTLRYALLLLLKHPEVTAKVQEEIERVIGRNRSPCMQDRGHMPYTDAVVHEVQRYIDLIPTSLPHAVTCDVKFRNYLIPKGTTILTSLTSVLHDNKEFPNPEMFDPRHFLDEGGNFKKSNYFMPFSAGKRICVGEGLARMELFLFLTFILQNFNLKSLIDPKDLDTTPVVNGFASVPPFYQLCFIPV

T1 sequence (Q92918 whole entry, the tested form may be a part): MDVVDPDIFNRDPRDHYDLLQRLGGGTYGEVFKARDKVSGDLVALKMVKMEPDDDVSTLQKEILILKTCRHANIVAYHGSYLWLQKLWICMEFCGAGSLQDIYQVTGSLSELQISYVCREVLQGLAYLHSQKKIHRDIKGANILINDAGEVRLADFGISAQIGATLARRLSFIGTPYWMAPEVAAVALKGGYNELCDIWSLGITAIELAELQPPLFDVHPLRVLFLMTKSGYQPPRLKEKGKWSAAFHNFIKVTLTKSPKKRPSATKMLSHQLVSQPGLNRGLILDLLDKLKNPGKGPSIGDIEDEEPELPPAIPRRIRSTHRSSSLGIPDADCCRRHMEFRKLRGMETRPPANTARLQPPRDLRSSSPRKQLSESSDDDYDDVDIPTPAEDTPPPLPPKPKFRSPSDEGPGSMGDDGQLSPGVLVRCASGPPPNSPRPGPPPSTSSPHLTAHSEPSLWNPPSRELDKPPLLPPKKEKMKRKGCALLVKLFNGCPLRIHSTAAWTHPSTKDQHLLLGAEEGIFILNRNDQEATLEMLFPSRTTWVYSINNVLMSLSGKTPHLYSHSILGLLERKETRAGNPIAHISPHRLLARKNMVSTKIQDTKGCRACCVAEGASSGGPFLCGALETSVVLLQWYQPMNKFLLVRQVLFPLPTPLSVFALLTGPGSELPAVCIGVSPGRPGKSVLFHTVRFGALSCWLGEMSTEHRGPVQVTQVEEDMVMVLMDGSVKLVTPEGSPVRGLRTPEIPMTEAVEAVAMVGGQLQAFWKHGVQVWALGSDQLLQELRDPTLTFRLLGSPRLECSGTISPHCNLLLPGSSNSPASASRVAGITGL
Cytochrome P450 2C9, sequence (P11712 whole entry): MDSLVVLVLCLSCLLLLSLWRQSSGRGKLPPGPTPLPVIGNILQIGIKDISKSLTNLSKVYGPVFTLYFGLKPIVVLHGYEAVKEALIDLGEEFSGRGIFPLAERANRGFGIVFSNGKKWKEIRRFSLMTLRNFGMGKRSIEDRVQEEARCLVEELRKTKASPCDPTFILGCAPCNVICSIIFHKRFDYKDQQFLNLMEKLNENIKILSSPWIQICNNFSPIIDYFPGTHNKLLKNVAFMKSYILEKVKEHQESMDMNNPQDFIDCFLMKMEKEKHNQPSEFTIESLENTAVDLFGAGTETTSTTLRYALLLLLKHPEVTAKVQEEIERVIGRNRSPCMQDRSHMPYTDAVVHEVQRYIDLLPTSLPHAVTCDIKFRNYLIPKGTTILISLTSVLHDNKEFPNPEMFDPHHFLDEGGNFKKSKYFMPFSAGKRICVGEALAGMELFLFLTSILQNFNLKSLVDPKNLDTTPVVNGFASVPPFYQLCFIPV
Cytochrome P450 2D6, sequence (P10635 whole entry): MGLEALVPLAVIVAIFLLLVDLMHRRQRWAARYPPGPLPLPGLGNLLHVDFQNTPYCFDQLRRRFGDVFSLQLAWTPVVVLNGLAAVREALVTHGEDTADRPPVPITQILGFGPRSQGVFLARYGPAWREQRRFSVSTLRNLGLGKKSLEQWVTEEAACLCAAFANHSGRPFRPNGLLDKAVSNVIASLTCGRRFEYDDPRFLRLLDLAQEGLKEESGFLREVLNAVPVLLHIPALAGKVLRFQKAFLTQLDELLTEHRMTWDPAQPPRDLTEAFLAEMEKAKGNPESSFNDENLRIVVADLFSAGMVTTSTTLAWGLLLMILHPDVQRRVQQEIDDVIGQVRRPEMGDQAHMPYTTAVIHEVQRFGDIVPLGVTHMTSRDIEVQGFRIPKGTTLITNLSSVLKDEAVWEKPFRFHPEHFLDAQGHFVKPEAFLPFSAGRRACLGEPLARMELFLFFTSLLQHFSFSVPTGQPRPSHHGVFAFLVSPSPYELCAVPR
Cytochrome P450 3A4, sequence (P08684 whole entry): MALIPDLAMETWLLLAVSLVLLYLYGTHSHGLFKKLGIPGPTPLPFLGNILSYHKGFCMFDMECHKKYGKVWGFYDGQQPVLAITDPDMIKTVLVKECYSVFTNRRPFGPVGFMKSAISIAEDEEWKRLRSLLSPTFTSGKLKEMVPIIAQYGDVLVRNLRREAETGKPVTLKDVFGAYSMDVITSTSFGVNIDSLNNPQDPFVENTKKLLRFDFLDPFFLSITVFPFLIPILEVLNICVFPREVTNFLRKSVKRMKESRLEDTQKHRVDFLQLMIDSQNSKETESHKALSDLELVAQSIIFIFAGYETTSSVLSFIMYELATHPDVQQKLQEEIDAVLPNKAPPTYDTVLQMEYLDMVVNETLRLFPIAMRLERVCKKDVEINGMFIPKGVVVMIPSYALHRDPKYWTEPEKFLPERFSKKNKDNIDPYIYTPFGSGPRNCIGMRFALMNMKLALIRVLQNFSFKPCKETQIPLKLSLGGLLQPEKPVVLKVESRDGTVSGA
hERG (KCNH2), sequence (Q12809 whole entry): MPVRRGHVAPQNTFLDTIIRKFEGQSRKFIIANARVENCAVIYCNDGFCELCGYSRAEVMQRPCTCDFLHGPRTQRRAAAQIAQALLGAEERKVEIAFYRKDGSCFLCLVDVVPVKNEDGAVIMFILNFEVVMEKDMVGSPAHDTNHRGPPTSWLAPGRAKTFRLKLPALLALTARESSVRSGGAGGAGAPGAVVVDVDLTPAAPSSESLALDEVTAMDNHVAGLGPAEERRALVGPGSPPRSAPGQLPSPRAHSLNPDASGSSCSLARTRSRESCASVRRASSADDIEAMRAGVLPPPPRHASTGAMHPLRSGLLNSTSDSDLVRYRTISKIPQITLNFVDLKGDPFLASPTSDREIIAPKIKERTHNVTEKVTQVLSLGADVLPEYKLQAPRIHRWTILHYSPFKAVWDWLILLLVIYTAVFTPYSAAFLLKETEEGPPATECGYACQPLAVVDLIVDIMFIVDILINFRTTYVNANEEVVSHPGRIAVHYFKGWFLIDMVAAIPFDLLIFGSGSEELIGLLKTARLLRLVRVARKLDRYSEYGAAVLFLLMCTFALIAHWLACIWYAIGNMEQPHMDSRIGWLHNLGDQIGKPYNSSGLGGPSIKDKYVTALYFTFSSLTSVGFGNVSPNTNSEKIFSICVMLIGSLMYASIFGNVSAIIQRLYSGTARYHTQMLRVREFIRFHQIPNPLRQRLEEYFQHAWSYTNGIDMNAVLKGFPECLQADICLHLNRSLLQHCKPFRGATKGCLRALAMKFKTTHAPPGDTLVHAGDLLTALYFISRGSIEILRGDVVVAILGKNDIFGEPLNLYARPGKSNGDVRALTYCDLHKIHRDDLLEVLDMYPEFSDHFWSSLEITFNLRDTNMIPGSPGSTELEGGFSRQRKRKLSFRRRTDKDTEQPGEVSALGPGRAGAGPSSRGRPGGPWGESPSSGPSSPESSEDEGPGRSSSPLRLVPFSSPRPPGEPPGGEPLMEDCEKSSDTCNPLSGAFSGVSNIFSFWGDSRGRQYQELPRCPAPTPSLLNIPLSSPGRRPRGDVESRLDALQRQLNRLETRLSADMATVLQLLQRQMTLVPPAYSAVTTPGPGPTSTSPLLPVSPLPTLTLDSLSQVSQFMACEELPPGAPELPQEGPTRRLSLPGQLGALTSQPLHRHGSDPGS

AUC at 24 h [1]: 9.77 µM·h
Vdss [2]: 4 L/kg
half-life [3]: 6 h
clearance [4]: 0.95 L/h/kg
AUC at 24 h [5]: 1.1 µM·h
clearance [6]: 6.1 L/h/kg
fraction unbound [7]: 0.43
Papp A→B at 2 h, 50 µM [8]: 31 nm/s
Ki [9]: 0.0041 µM
IC50 [10]: 0.146 µM
CLint scaled at 1 µM [11]: 0.5 L/h/kg
bioavailability [12]: 96%
IC50 [13]: 0.302 µM
IC50 [14]: > 15 µM
IC50 [15]: > 15 µM
IC50 [16]: > 15 µM
IC50 [17]: > 15 µM
IC50 [18]: > 15 µM
IC50 [19]: > 15 µM
IC50 [21]: > 15 µM
Compound: Cc1cc(CN2CCC2)cc(F)c1-c1cc2c(-c3cnn(C)c3)n[nH]c2cn1
inhibition at 5 µM [20]: 5%
